The subject of assay [1] is Phospholipase C (Bacillus cereus). In words: Compound was evaluated for its […] activity against phospholipase C from Bacillus cereus.
Assay [2] shares this test system. In words: Critical Micellar Concentration for the compound was calculated for phospholipase C from Bacillus cereus.

For `CCCCCC(=O)OCC(COP(=O)([O-])OCC[N+](C)(C)C)OC(=O)CCCCC` (stereo not drawn), the k cat in assay [1] worked out at 1000 s⁻¹.

The compound `CCCCCC(=O)OCC(COP(=O)(O)OCCC(C)(C)C)OC(=O)CCCCC` (stereo not drawn) came in with a k cat in assay [1] of 5.2 s⁻¹. The CMC in assay [2] was 9.5 mM.

Values taken from ChEMBL document CHEMBL1131647, “Enzymatic synthesis of a modified phospholipid and its evaluation as a substrate for B. cereus phospholipase C” (Bioorg Med Chem Lett, 1998).
